Reference: patent US20040266885A1, “Wood preservative compositions” (priority 2001, published 2004)
Values joined by “and” are separate entries in the source; they are usually repeats but may differ in a detail not shown here. Identical values can stand only once. “Also recorded” adds a separate entry of the source. Like-named read-outs stand apart in the source and are kept apart here.

Tested on: Coptotermes formosanus
Settings: for Surface Activity (termites on the surface of the soil) / Tunneling Activity / Visible Mortality / repellent effect on termites (surface activity data) / Mean Rating (termite attack) / Termite Attack Rating / termite mortality by the end of the incubation period / toxic value, lower (concentration at which the wood is no longer sufficiently protected) / toxic value, upper (lowest concentration which protects the wood): ethanol carrier; for reduction in termite attack: concentrated solutions, followed by leaching; for Mean Rating (termite attack): mean of 4 specimens; for Mean Rating (termite attack) / Termite Attack Rating: 4 weeks sand culture; for Termite Attack Rating: single specimen; for termite mortality by the end of the incubation period: higher concentrations; for toxic value, lower (concentration at which the wood is no longer sufficiently protected) / toxic value, upper (lowest concentration which protects the wood): mean loading, leached; for toxic value, lower (concentration at which the wood is no longer sufficiently protected): solution concentration 5%; for toxic value, upper (lowest concentration which protects the wood): solution concentration 7%
From the text: A laboratory test was undertaken to determine the toxic values of novel actives against termites. The active materials used were TBBA, TBBE [4,4′-ethylidenebis(2,6-dibromophenol)] [CAS RN=12639-25-3] (Sample Number 1392-82-03); TBBZ [4,4′-cyclohexylidene(2,6-dibromophenol)] [CAS RN=53350-96-2] (Sample Number 1392-72-03) and TBA, 2,2′,6-tribromo-4,4′-isopropylidenediphenol, CAS 6386-73-8 (Sample Number 1392-75-03).
The test was undertaken largely according to the strictures laid down in ASTM 3345-74 (the American standard laboratory test to assess the termite resistant properties of wood to wood destroying termites). The test method allows for the exposure of treated buried wood blocks to termites (Reticulitermes or Coptotermes spp.) over a period of 4 weeks. Efficacy of the product is determined by the extent of termite damage to the treated timber specimens through a scoring system. The test was slightly modified from the standard ASTM test by reducing the number of replicate wood specimens from 5 to 4.
Score 1: Attempted attack
The toxic values of the preservative product (in kg/m^3 of wood) fall between two values as follows:
1) The lowest concentration which protects the wood (i.e. the concentration at which none of the test specimens show a degree of attack greater than 1).
The termites employed were Coptotermes formosanus.
All wood bock specimens were of Southern Yellow Pine sapwood (Pinus spp.) with dimensions of 25.4×25.4×6.4 mm in accordance with ASTM D3345-74. All blocks were vacuum impregnated with the relevant solutions in accordance with ASTM D3345-74. Distribution of blocks in the test was as follows:
The test specimens were conditioned and subjected to a leaching schedule (after vacuum impregnation) as stipulated in ASTM D1413-76 (as recommended in ASTM D3345-74). All test specimens were then air dried for two weeks to constant weight.
The specimens were each positioned at the base of a 500 ml polyethylene culture jar (numbered according to each test specimen) and covered with 200 g of sand (pre-washed, sterilised and air conditioned in the laboratory) to which was added 25 g of de-ionised water. A further two containers containing watered sand but no timber were also prepared. All the jars were sealed (lids pre-pierced and covered with stainless steel mesh for aeration).
Two days after specimen placement, 200 termites were added to each culture jar (90% workers and 10% soldiers) and the jars re-sealed. The jars were incubated at a mean temperature and relative humidity of 27.5° C. and 75-90% for 4 weeks. The containers were provided with an artificial lighting regime of 10 hours light and 14 hours darkness.
After 1 week and 4 weeks each container was examined to determine termite mortality and normal tunneling behaviour patterns as follows:
Is there tunneling present: YES/NO
Are there any termites on the surface of the soil: YES/NO (if yes how many, i.e. 1-25% of pop, 26-50% of pop, 51-100% of pop.)
Are any dead termites visible: YES/NO (if yes how many, 1-33%, 34-66%, 67-100%)
After 4 weeks the test specimens were removed and cleaned of debris. Each block was examined and visually rated for termite damage using the scoring system detailed above.
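For Termite Attack Rating in this document: score 0 no attack 2 slight 3 average 4 strong attack.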

Oc1c(Br)cc(C2(c3cc(Br)c(O)c(Br)c3)CCCCC2)cc1Br [TBBZ, 4,4′-cyclohexylidene(2,6-dibromophenol)]
Surface Activity (termites on the surface of the soil) (1 week, solution conc. 1%): No/No | Tunneling Activity (1 week, solution conc. 1%): Yes/Yes | Visible Mortality (1 week, solution conc. 1%): No/No | Surface Activity (termites on the surface of the soil) (1 week, solution conc. 3%): No/No | Tunneling Activity (1 week, solution conc. 3%): Yes/Yes | Visible Mortality (1 week, solution conc. 3%): No | Surface Activity (termites on the surface of the soil) (1 week, solution conc. 5%): No/No | Tunneling Activity (1 week, solution conc. 5%): Yes/Yes | Visible Mortality (1 week, solution conc. 5%): No | Surface Activity (termites on the surface of the soil) (1 week, solution conc. 7%): 1-25 % (of pop.) | Tunneling Activity (1 week, solution conc. 7%): Yes/Yes | Visible Mortality (1 week, solution conc. 7%): No | Surface Activity (termites on the surface of the soil) (1 week, solution conc. 10%): 1-25 % (of pop.) | Tunneling Activity (1 week, solution conc. 10%): Yes/Yes | Visible Mortality (1 week, solution conc. 10%): No | Surface Activity (termites on the surface of the soil) (4 weeks, solution conc. 1%): No/No | Tunneling Activity (4 weeks, solution conc. 1%): Yes/Yes | Visible Mortality (4 weeks, solution conc. 1%): No/No | Surface Activity (termites on the surface of the soil) (4 weeks, solution conc. 3%): No/No | Tunneling Activity (4 weeks, solution conc. 3%): Yes/Yes | Visible Mortality (4 weeks, solution conc. 3%): 1-33 % (of pop.) | Surface Activity (termites on the surface of the soil) (4 weeks, solution conc. 5%): No/No | Tunneling Activity (4 weeks, solution conc. 5%): Yes/Yes | Visible Mortality (4 weeks, solution conc. 5%): 34-66 % (of pop.) | Surface Activity (termites on the surface of the soil) (4 weeks, solution conc. 7%): No | Tunneling Activity (4 weeks, solution conc. 7%): Yes/Yes | Visible Mortality (4 weeks, solution conc. 7%): 34-66 % (of pop.) | Surface Activity (termites on the surface of the soil) (4 weeks, solution conc. 10%): No | Tunneling Activity (4 weeks, solution conc. 10%): Yes/Yes | Visible Mortality (4 weeks, solution conc. 10%): 67-100 % (of pop.) | reduction in termite attack: a significant reduction in termite attack; also recorded: the higher concentrations do reduce termite attack | repellent effect on termites (surface activity data): a degree of termite repellency | Mean Rating (termite attack) (solution conc. 1%): 2.50 | Termite Attack Rating (solution conc. 1%): 4 and 2 | Mean Rating (termite attack) (solution conc. 3%): 1.50 | Termite Attack Rating (solution conc. 3%): 2 and 1 | Mean Rating (termite attack) (solution conc. 5%): 1.25 | Termite Attack Rating (solution conc. 5%): 1 and 2 | Mean Rating (termite attack) (solution conc. 7%): 1.25 | Termite Attack Rating (solution conc. 7%): 1 and 2 | Mean Rating (termite attack) (solution conc. 10%): 1.25 | Termite Attack Rating (solution conc. 10%): 1 and 2

CC(c1cc(Br)c(O)c(Br)c1)c1cc(Br)c(O)c(Br)c1 [TBBE, 4,4′-ethylidenebis(2,6-dibromophenol)]
Surface Activity (termites on the surface of the soil) (1 week, solution conc. 1%): No/No | Tunneling Activity (1 week, solution conc. 1%): Yes/Yes | Visible Mortality (1 week, solution conc. 1%): No/No | Surface Activity (termites on the surface of the soil) (1 week, solution conc. 3%): No/No | Tunneling Activity (1 week, solution conc. 3%): Yes/Yes | Visible Mortality (1 week, solution conc. 3%): No | Surface Activity (termites on the surface of the soil) (1 week, solution conc. 5%): No/No | Tunneling Activity (1 week, solution conc. 5%): Yes/Yes | Visible Mortality (1 week, solution conc. 5%): No | Surface Activity (termites on the surface of the soil) (1 week, solution conc. 7%): 1-25%/1-25% (of % (of pop.) | Tunneling Activity (1 week, solution conc. 7%): Yes/Yes | Surface Activity (termites on the surface of the soil) (1 week, solution conc. 10%): 1-25%/1-25% (of % (of pop.) | Tunneling Activity (1 week, solution conc. 10%): Yes/Yes | Visible Mortality (1 week, solution conc. 10%): No | Surface Activity (termites on the surface of the soil) (4 weeks, solution conc. 1%): No/No | Tunneling Activity (4 weeks, solution conc. 1%): Yes/Yes | Visible Mortality (4 weeks, solution conc. 1%): No/No | Surface Activity (termites on the surface of the soil) (4 weeks, solution conc. 3%): No/No | Tunneling Activity (4 weeks, solution conc. 3%): Yes/Yes | Visible Mortality (4 weeks, solution conc. 3%): 1-33 % (of pop.) | Surface Activity (termites on the surface of the soil) (4 weeks, solution conc. 5%): No/No | Tunneling Activity (4 weeks, solution conc. 5%): Yes/Yes | Surface Activity (termites on the surface of the soil) (4 weeks, solution conc. 7%): 1-25%/1-25% (of % (of pop.) | Tunneling Activity (4 weeks, solution conc. 7%): Yes/Yes | Visible Mortality (4 weeks, solution conc. 7%): 67-100 % (of pop.) | Surface Activity (termites on the surface of the soil) (4 weeks, solution conc. 10%): 1-25%/1-25% (of % (of pop.) | Tunneling Activity (4 weeks, solution conc. 10%): Yes/Yes | Visible Mortality (4 weeks, solution conc. 10%): 67-100 % (of pop.) | reduction in termite attack: a significant reduction in termite attack | repellent effect on termites (surface activity data): a degree of termite repellency; also recorded: a repellent effect at certain stages of the incubation period; also recorded: a repellent effect early in the incubation period at higher concentrations | termite mortality by the end of the incubation period: significant termite mortality | toxic value, lower (concentration at which the wood is no longer sufficiently protected) (4 weeks): 28.53 kg/m^3 | toxic value, upper (lowest concentration which protects the wood) (4 weeks): 35.93 kg/m^3 | Mean Rating (termite attack) (solution conc. 1%): 3.00 | Termite Attack Rating (solution conc. 1%): 3 | Mean Rating (termite attack) (solution conc. 3%): 2.00 | Termite Attack Rating (solution conc. 3%): 2 and 3 and 1 | Mean Rating (termite attack) (solution conc. 5%): 1.50 | Termite Attack Rating (solution conc. 5%): 2 and 1 | Mean Rating (termite attack) (solution conc. 7%): 1.00 | Termite Attack Rating (solution conc. 7%): 1 | Mean Rating (termite attack) (solution conc. 10%): 1.25 | Termite Attack Rating (solution conc. 10%): 1 and 2

CC(C)(c1ccc(O)c(Br)c1)c1cc(Br)c(O)c(Br)c1 [TBA, 2,2′,6-tribromo-4,4′-isopropylidenediphenol]
Surface Activity (termites on the surface of the soil) (1 week, solution conc. 1%): No/No | Tunneling Activity (1 week, solution conc. 1%): Yes/Yes | Visible Mortality (1 week, solution conc. 1%): No/No | Surface Activity (termites on the surface of the soil) (1 week, solution conc. 3%): No/No | Tunneling Activity (1 week, solution conc. 3%): Yes/Yes | Visible Mortality (1 week, solution conc. 3%): No | Surface Activity (termites on the surface of the soil) (1 week, solution conc. 5%): No/No | Tunneling Activity (1 week, solution conc. 5%): Yes/Yes | Visible Mortality (1 week, solution conc. 5%): No | Surface Activity (termites on the surface of the soil) (1 week, solution conc. 7%): No/No | Tunneling Activity (1 week, solution conc. 7%): Yes/Yes | Visible Mortality (1 week, solution conc. 7%): No | Surface Activity (termites on the surface of the soil) (1 week, solution conc. 10%): No/No | Tunneling Activity (1 week, solution conc. 10%): Yes/Yes | Visible Mortality (1 week, solution conc. 10%): No | Surface Activity (termites on the surface of the soil) (4 weeks, solution conc. 1%): No/No | Tunneling Activity (4 weeks, solution conc. 1%): Yes/Yes | Visible Mortality (4 weeks, solution conc. 1%): No/No | Surface Activity (termites on the surface of the soil) (4 weeks, solution conc. 3%): No/No | Tunneling Activity (4 weeks, solution conc. 3%): Yes/Yes | Visible Mortality (4 weeks, solution conc. 3%): 1-33 % (of pop.) | Surface Activity (termites on the surface of the soil) (4 weeks, solution conc. 5%): No/No | Tunneling Activity (4 weeks, solution conc. 5%): Yes/Yes | Visible Mortality (4 weeks, solution conc. 5%): 34-66 % (of pop.) | Surface Activity (termites on the surface of the soil) (4 weeks, solution conc. 7%): No/No | Tunneling Activity (4 weeks, solution conc. 7%): Yes/Yes | Visible Mortality (4 weeks, solution conc. 7%): 34-66 % (of pop.) | Surface Activity (termites on the surface of the soil) (4 weeks, solution conc. 10%): No/No | Tunneling Activity (4 weeks, solution conc. 10%): Yes/Yes | Visible Mortality (4 weeks, solution conc. 10%): 34-66 % (of pop.) | reduction in termite attack: a significant reduction in termite attack | repellent effect on termites (surface activity data): no repellent effect | termite mortality by the end of the incubation period: 34-66% | toxic value, lower (concentration at which the wood is no longer sufficiently protected) (4 weeks): 30.17 kg/m^3 | toxic value, upper (lowest concentration which protects the wood) (4 weeks): 41.22 kg/m^3 | Mean Rating (termite attack) (solution conc. 1%): 3.00 | Termite Attack Rating (solution conc. 1%): 3 and 2 and 4 | Mean Rating (termite attack) (solution conc. 3%): 1.75 | Termite Attack Rating (solution conc. 3%): 2 and 1 | Mean Rating (termite attack) (solution conc. 5%): 1.75 | Termite Attack Rating (solution conc. 5%): 2 and 1 | Mean Rating (termite attack) (solution conc. 7%): 1.00 | Termite Attack Rating (solution conc. 7%): 1 | Mean Rating (termite attack) (solution conc. 10%): 1.00 | Termite Attack Rating (solution conc. 10%): 1
